Earlier results, collected in US9808460B2, “Controlled release auris sensory cell modulator compositions and methods for the treatment of otic disorders” (Otonomy, Inc., priority 2008, dated 2017).

Test system: ototoxic effects of cisplatin
Details: in certain instances

NCCCNCCSP(=O)(O)O [Amifostine]
doses needed to protect against or ameliorate the ototoxic effects of cisplatin: ≥ 40 mg/kg
